From PubChem BioAssay (NCI)
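How tested: cells in 96-well plates exposed to compound for 48 hours at five concentrations. At the TGI there is no net growth.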

Legend:
Test in all cases: NCI tumour cell line growth inhibition, 48 h
[1] = tested on: SK-MEL-5 melanoma
[2] = tested on: OVCAR-8 ovarian
[3] = tested on: RPMI-8226 leukemia
[4] = tested on: UACC-62 melanoma
[5] = tested on: SK-MEL-28 melanoma
[6] = tested on: SW-620 colon
[7] = tested on: SK-OV-3 ovarian
[8] = tested on: PC-3 prostate
[9] = tested on: K-562 leukemia
[10] = tested on: SNB-75 CNS

Row | SMILES | TGI [1] | TGI [2] | TGI [3] | TGI [4] | TGI [5] | TGI [6] | TGI [7] | TGI [8] | TGI [9] | TGI [10]
1 | O=C1C2SC34c5c2c2ccccc2n5CCC3CCCN14 (centres undefined) | > 100 µM | > 100 µM | > 100 µM | > 100 µM | > 100 µM | > 100 µM | > 100 µM | > 100 µM | > 100 µM | –
2 | CCOC(=O)CCC(NC(=O)Cc1ccc(Nc2nc3cc(F)c(F)cc3nc2C(=O)OCC)cc1)C(=O)OCC (centres undefined) | > 100 µM | > 100 µM | – | > 100 µM | > 100 µM | > 100 µM | > 100 µM | > 100 µM | > 100 µM | 77.2 µM
3 | CCO/C(O)=C(/C(=N)N1CCOCC1)C(=O)Nc1ccc(F)cc1 | – | > 100 µM | > 100 µM | > 100 µM | > 100 µM | > 100 µM | > 100 µM | > 100 µM | > 100 µM | > 100 µM
4 | [N-]=[N+]=NC1(Cc2ccccc2)C(=O)c2cccc3c2N(CCC3)C1=O (centres undefined) | > 100 µM | > 100 µM | > 100 µM | > 100 µM | > 100 µM | > 100 µM | > 100 µM | – | > 100 µM | > 100 µM
5 | COc1cc(C2C3C=CC=C4CC=CC(=C43)C3CCC(=O)N32)cc(OC)c1OC (centres undefined) | – | > 100 µM | > 100 µM | > 100 µM | > 100 µM | > 100 µM | > 100 µM | > 100 µM | > 100 µM | > 100 µM
6 | O=c1[nH]nnc2c1sc1ncccc12 | > 100 µM | > 100 µM | – | > 100 µM | > 100 µM | > 100 µM | > 100 µM | > 100 µM | > 100 µM | > 100 µM
7 | CC1(C)C(C#N)C1C1=C(N2CCOCC2)[C@]2(C)C(OC(=O)c3ccccc3)CC[C@@H]2C1 (some centres undefined) | > 100 µM | > 100 µM | – | > 100 µM | > 100 µM | > 100 µM | > 100 µM | > 100 µM | > 100 µM | > 100 µM
8 | CC1(C)[C@@H](Cn2ccc(=O)[nH]c2=O)CC[C@@]1(C)CO | > 100 µM | – | – | > 100 µM | > 100 µM | > 100 µM | > 100 µM | > 100 µM | > 100 µM | > 100 µM
9 | CC(=O)OC(OC(C)=O)c1ccc2ccc3cccc4ccc1c2c34 | 32.8 µM | > 100 µM | > 100 µM | 27.3 µM | – | – | 53.4 µM | 65.6 µM | 96.2 µM | 41.6 µM
10 | Fc1ccc2c(c1)nc1n2C(c2c(Cl)cccc2Cl)SC1 (centres undefined) | 21.1 µM | 29 µM | 87.7 µM | 26.2 µM | 24.3 µM | 27.6 µM | 28.3 µM | 28.3 µM | – | 25.9 µM
11 | COc1cc(OC)c2nc(C)c(CCCl)c(Cl)c2c1 | – | > 100 µM | > 100 µM | > 100 µM | > 100 µM | > 100 µM | > 100 µM | > 100 µM | > 100 µM | > 100 µM
12 | CC(=O)Nc1sc(Br)cc1S(=O)(=O)c1ccc(Cl)cc1 | – | 68.7 µM | > 100 µM | > 100 µM | > 100 µM | > 100 µM | > 100 µM | 43.1 µM | 78.3 µM | 88.6 µM
13 | CCCC(=O)NC(NC1CCCCC1)(C(=O)OCC)C(F)(F)F (centres undefined) | > 100 µM | > 100 µM | > 100 µM | – | > 100 µM | > 100 µM | > 100 µM | > 100 µM | > 100 µM | > 100 µM
14 | O=C1/C(=C/c2ccc(Br)s2)NC(=S)N1c1ccccc1 | > 100 µM | – | 85.1 µM | > 100 µM | > 100 µM | > 100 µM | > 100 µM | > 100 µM | > 100 µM | –
15 | CC(C)(C)OC(=O)NC1CCCCC1NC(=O)C(=O)NC1CCCCC1NC(=O)OC(C)(C)C (centres undefined) | > 100 µM | > 100 µM | > 100 µM | 92.9 µM | > 100 µM | > 100 µM | > 100 µM | > 100 µM | > 100 µM | –
16 | COc1cc(C2c3cc4c(cc3OC(N3CCCCC3)C2C)OCO4)cc(OC)c1O (centres undefined) | 19.8 µM | 36.7 µM | > 76.3 µM | – | 27.3 µM | 21.9 µM | 19.9 µM | 22.2 µM | > 100 µM | 13.7 µM
17 | Cc1ccc(/C=N/Nc2cc(C)c3cccc(C)c3n2)s1 | 23.9 µM | 26.9 µM | 67.4 µM | 43.6 µM | > 100 µM | > 100 µM | 33.5 µM | 40.8 µM | – | > 100 µM
18 | N#C[C@H](c1ccccn1)c1nc2ccccc2nc1Cl | > 100 µM | > 100 µM | > 100 µM | > 100 µM | > 100 µM | > 100 µM | > 100 µM | > 100 µM | – | > 100 µM
